How the values were obtained:
[1] = In vitro inhibition against mammalian Uridine phosphorylase
[2] = Michaelis-Menten constant for Uridine phosphorylase
[3] = substrate: O=c1[nH]c(=S)ccn1[C@H]1C[C@H](O)[C@@H](COP(=O)(O)O)O1; experiment: Michaelis-Menten constant for dTMP synthetase; details: Lacticaseibacillus casei

Oc1ncc(Cc2ccccc2)c(O)n1
Ki [1]: ~1 µM

C[C@H]1OC(n2ccc(=O)[nH]c2=O)[C@H](O)[C@@H]1O (stereo partly drawn)
Km [2]: 1000 µM

B1: Thymidylate synthase (Lactobacillus casei), P00469 (protein)
chain: MLEQPYLDLAKKVLDEGHFKPDRTHTGTYSIFGHQMRFDLSKGFPLLTTKKVPFGLIKSELLWFLHGDTNIRFLLQHRNHIWDEWAFEKWVKSDEYHGPDMTDFGHRSQKDPEFAAVYHEEMAKFDDRVLHDDAFAAKYGDLGLVYGSQWRAWHTSKGDTIDQLGDVIEQIKTHPYSRRLIVSAWNPEDVPTMALPPCHTLYQFYVNDGKLSLQLYQRSADIFLGVPFNIASYALLTHLVAHECGLEVGEFIHTFGDAHLYVNHLDQIKEQLSRTPRPAPTLQLNPDKHDIFDFDMKDIKLLNYDPYPAIKAPVAV
Km [3]: 70 µM

From ChEMBL document CHEMBL1121380, “Perspective on the design and biochemical pharmacology of inhibitors of thymidylate synthetase” (J Med Chem, 1980)
